Entries after “also recorded” stand apart in the source; their conditions may differ.

The target in one test is T1, EXO1 K85A (Homo sapiens, UniProt Q9UQ84, K85A).
T1 construct: The N-terminal domain of human EXO1 (hEXO1) (residues 1–345) was cloned into the pET28b vector; made in house; host or cells: E. coli BL21(DE3) and Rosetta 2(DE3)
Briefly: In vitro exonuclease activity of mutant with inhibitors. Conditions: EXO1 25 nM, DNA substrate 250 nM; C200 0-5 μM, F684 10-40 μM. In kind it is biochemical. On the procedure:
(§1) Simultaneously, we tested the effect of each point mutation on the in vitro exonuclease activity. Most mutations in site 1 result in some loss of enzymatic activity compared to WT EXO1 (Figure S13; WT:Figure S13a), particularly K85A and D225A (Figure S13b,f). […] However, at concentrations of 20 and 40 μM, the mutants (K85A and R92A) behaved more like WT (Figure b).
(§2) In both panels a and b, DMSO without inhibitors was used as a control, and its relative binding activity was set equal to 1.0. The EXO1 enzyme concentration was 25 nM, and the DNA substrate concentration was 250 nM. The values shown are the mean ± S.D. of three independent experiments.
(§3) The N-terminal domain of human EXO1 (hEXO1) (residues 1–345) was cloned into the pET28b vector. The following mutations were introduced via site-directed mutagenesis based on the findings of molecular docking analysis: K85A, E89A, R92A, I125A, D225A, K292A, and K294A (oligonucleotide primers listed in Table S1) following the established protocol.

For a further test, the target named is T2, EXO1 R92A (Homo sapiens, UniProt Q9UQ84, R92A).
T2 construct: The N-terminal domain of human EXO1 (hEXO1) (residues 1–345) was cloned into the pET28b vector; made in house; host or cells: E. coli BL21(DE3) and Rosetta 2(DE3)
T2 sequence (Q9UQ84 1-345 R92A): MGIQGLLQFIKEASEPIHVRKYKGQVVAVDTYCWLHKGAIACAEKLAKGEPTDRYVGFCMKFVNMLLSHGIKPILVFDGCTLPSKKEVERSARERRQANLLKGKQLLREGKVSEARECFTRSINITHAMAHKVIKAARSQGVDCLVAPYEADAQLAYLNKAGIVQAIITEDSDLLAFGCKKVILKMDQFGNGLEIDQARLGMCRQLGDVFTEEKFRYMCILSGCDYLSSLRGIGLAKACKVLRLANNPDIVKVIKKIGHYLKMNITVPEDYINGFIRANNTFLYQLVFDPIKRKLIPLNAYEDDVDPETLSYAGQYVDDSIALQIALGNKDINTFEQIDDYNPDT
The test is described as above. Conditions: EXO1 25 nM, DNA substrate 250 nM; C200 0-5 μM, F684 10-40 μM. In kind it is biochemical. The method, then: as §1, §2, §3

The subject of test [1] is MDA-MB-436 (BRCA1−) and MDA-MB-436 (BRCA1+) cells. In words: Annexin V apoptosis assay. Particulars: 5 days of treatment. It is filed as cell-based, human. On the procedure:
After 24 h of incubation, testing compounds were added to cells at final concentrations of 50, 25, 12, and 5 μM using the Echo Liquid Handler (Beckman). Subsequently, 10 μL of the NIR-labeled Annexin V apoptosis reagent (Cat. #4768, Sartorius, Germany) was added to each well at a 1:200 final dilution. The plates were then transferred to the Incucyte Live-Cell Analysis System for real-time apoptosis monitoring over a 5 day period. Imaging was conducted using a 10× objective with phase-contrast and near-infrared (NIR) fluorescent channels, capturing scans every 2 h. Image analysis was performed with the Incucyte software, and the total NIR fluorescence intensity was quantified to evaluate the apoptosis.

For test [2] the test system is unchanged. Briefly: In vitro cell survival assay (cell counting). Particulars: 1-50 μM F684, 5 days. It is filed as cell-based, human. The method, then: For this assay, 10,000 cells were seeded per well in a 24-well plate and incubated in a complete culture medium containing DMSO or the EXO1i of interest at 37 °C with 5% CO2. The medium was refreshed every 3 to 4 days by replacing it with a fresh medium containing DMSO or EXO1i. After 5 days, the cells were trypsinized, and the survival curve was generated by manual cell counting.

Test [3] deals with MDA-MB-436 (BRCA1−) tumors. Briefly: In vivo tumor growth assay, xenograft. Set-up: species or system mouse. Conditions: p = 0.018. The method, then: (§4) The tumor growth rate of human breast cancer cells with or without treatment with EXO1i was evaluated by using a xenograft breast cancer mouse model. […] The tumor volume in each mouse was measured twice a week and calculated using the formula (length × width × width)/2 (mm^3). When the tumors reached a volume of 1000 mm^3, the mice were euthanized. Animal studies were conducted in accordance with an approved protocol adhering to the IACUC policies and procedures of the City of Hope.

Test [4] relates to MDA-MB-436 (BRCA1+) tumors. Briefly: In vivo tumor growth assay, xenograft. Conditions: p = 0.64. Set-up: species or system mouse. On the procedure: as §4
Another test concerns SF-295. In words: Cell line drug profiling, CellTiter Glo. In kind it is cell-based, human. Particulars: Homo sapiens, SF-295, 72 h. The method, then:
(§5) We tested the cytotoxicity of representative compounds from the seven EXO1i scaffolds against a subset of the NCI-60 cell line panel along with three additional pancreatic cell lines (FG, AsPC1, and CaPan2). In general, cells were seeded in 384-well tissue culture-treated plates overnight and treated with various concentrations of each hit compound (a serial 3-fold dilution from 50 μM for all tested hits). Each concentration was performed in duplicate. Cell viability was then measured by CellTiter Glo (Promega) after 72 h of treatment.
Background: ATP-based viability assays read luminescence as a measure of living cells.

For the next test, the system named is U251. In words: Cell line drug profiling, CellTiter Glo. It is filed as cell-based. Conditions: Homo sapiens, U-251; U251, Central Nervous System, 72 h. On the procedure:
as §5

The subject of the next test is OVCAR-4. Briefly: Cell line drug profiling, CellTiter Glo. Particulars: Homo sapiens; OVCAR-4, Ovarian, 72 h. In kind it is cell-based. On the procedure: as §5
For a further test, the system named is DU145. Briefly: Cell line drug profiling, CellTiter Glo. It is filed as cell-based. Conditions: Homo sapiens, DU-145; DU145, Prostate, 72 h. The method, then: as §5
A further test relates to PC3. In words: Cell line drug profiling, CellTiter Glo. It is filed as cell-based. Particulars: Homo sapiens, PC-3; PC3, Prostate, 72 h. The method, then: as §5
Another test relates to OVCAR-8. Briefly: Cell line drug profiling, CellTiter Glo. In kind it is cell-based. Particulars: Homo sapiens; OVCAR-8, Ovarian, 72 h. The method, then: as §5
The test system of another test is SKOV-3. Briefly: Cell line drug profiling, CellTiter Glo. Particulars: Homo sapiens, SK-OV-3; SKOV-3, Ovarian, 72 h. In kind it is cell-based. On the procedure: as §5
The next test relates to OVCAR-5. In words: Cell line drug profiling, CellTiter Glo. It is filed as cell-based. Particulars: Homo sapiens; OVCAR-5, Ovarian, 72 h. The method, then: as §5
In another test the test system is H23. Briefly: Cell line drug profiling, CellTiter Glo. It is filed as cell-based. Conditions: Homo sapiens, NCI-H23; H23, Lung, 72 h. On the procedure:
as §5

The test system of another test is IGR-OV1. In words: Cell line drug profiling, CellTiter Glo. In kind it is cell-based. Conditions: Homo sapiens, IGROV-1; IGR-OV1, Ovarian, 72 h. On the procedure:
as §5

The test system of the next test is T-47D. In words: Cell line drug profiling, CellTiter Glo. In kind it is cell-based. Particulars: Homo sapiens, T47D, Breast, 72 h. The method, then: as §5
The subject of the next test is NCI/ADR-RES. In words: Cell line drug profiling, CellTiter Glo. In kind it is cell-based. Conditions: Homo sapiens, Ovarian, 72 h. The method, then:
as §5

For a further test, the system named is SNB-19. In words: Cell line drug profiling, CellTiter Glo. In kind it is cell-based. Conditions: Homo sapiens; SNB-19, Central Nervous System, 72 h. The method, then: as §5
The next test deals with UACC-257. In words: Cell line drug profiling, CellTiter Glo. Particulars: Homo sapiens; UACC-257, Melanoma, 72 h. It is filed as cell-based. On the procedure:
as §5

The next test concerns DU145 (B3). Briefly: Cell line drug profiling, CellTiter Glo. It is filed as cell-based. Conditions: Homo sapiens, DU-145, Prostate, 72 h. The method, then: as §5
Setting [5] is: 8.5 mg/kg daily intraperitoneal.

T1 sequence (Q9UQ84 1-345 K85A): as the sequence (Q9UQ84 1-345 R92A) above, with K85A, A92R counted along it

In the case of `Cc1cccc(N2CCN(c3ccc(NS(=O)(=O)c4ccccc4)c(C(=O)O)c3)CC2)c1C` [F684], the “inhibitory activity against EXO1 K85A mutant vs WT” value on EXO1 K85A is “partially lost its inhibitory effects; also recorded: abolished”. Also, the “inhibitory activity against EXO1 R92A mutant vs WT” value on EXO1 R92A is listed as “partially lost its inhibitory effects; also recorded: abolished”. Also, in test [1], the “apoptosis (Annexin V fluorescence intensity), BRCA1− vs BRCA1+” value was “substantially stronger killing effect in a BRCA1– context”. For the same compound, the “cell killing (survival), BRCA1– vs BRCA1+ cells” value in test [2] is reported as “more effective in killing BRCA1– cells compared to BRCA1+ cells”. Also, in [3] (8.5 mg/kg body weight/day intraperitoneal, NSG mice, vehicle […]), the “average growth rate of BRCA1– tumors” value is listed as 11.3 %/day. Further, in test [3] (setting [5]), the “tumor volumes compared with vehicle, BRCA1- mouse models” value is “significantly reduced tumor volumes”. The “average growth rate of BRCA1+ tumors” value in test [4] (8.5 mg/kg body weight/day intraperitoneal, NSG mice, vehicle 16.6) is listed as 15.1 %/day. In test [4] (setting [5]), the “tumor volumes compared with vehicle, BRCA1+ tumors” value is “no effect”.

Regarding `COC(=O)c1nc(-c2ccc(OC)cc2)nc(O)c1O` [C200], the “inhibitory activity against EXO1 K85A mutant vs WT” value against EXO1 K85A is recorded as “did not have a significant”. Also, on EXO1 R92A, the “inhibitory activity against EXO1 R92A mutant vs WT” value was “partially lost its inhibitory effect; also recorded: abolished”. The concentration for half-maximal inhibition (IC50) (as a rule, the concentration that gives 50% inhibition) is more than 50 µM in the test with SF-295; more than 50 µM in the test on U251; more than 50 µM in the test on OVCAR-4; 49.4 µM in the test with DU145; more than 50 µM in the test with PC3; more than 50 µM in the test on OVCAR-8. Also, the IC50 in the test with SKOV-3, in the test on OVCAR-5, in the test with H23, in the test on IGR-OV1, in the test on T-47D and with NCI/ADR-RES was more than 50 µM throughout. The IC50 in the test with SNB-19, in the test with UACC-257 and in the test with DU145 (B3) was more than 50 µM in each case.

Source of the values: paper PMC12186255, “Discovery and Characterization of Small Molecule Inhibitors Targeting Exonuclease 1 for Homologous Recombination-Deficient Cancer Therapy” (ACS Chemical Biology, 2025).
